Experimental data as given in patent US4267192A, “Method for treating inflammation” (priority 1980, dated 1981).
Where two headings read alike, the source gives them in different places.

Columns and labels:
[1] = tested on: carrageenan-induced edema in the hind paw of the rat; assay: rat carrageenan edema test (hind paw); format: in vivo, rat (male Sprague-Dawley); conditions: for Change in paw volume (ml) from 0-3 hr: mean ± S.E.; for % Change in paw edema: vs control
Experimental: (§1) Vehicle alone is administered as a control. Sixty minutes after drug administration edema is induced by an injection of 0.1 ml. of a 1% carrageenan solution is saline into the subplantar tissue of the rat's right hind paw. Two minutes later, paw volume is measured volumetrically with a plethysmograph and again 3 hours later. The mean volume of swelling for the control group is calculated and compared to the test groups. Percent change in paw edema is calculated and analyzed statistically (unpaired, Student's t-test).

[2] = tested on: carrageenan-induced edema in the hind paw of normal and adrenalectomized rats; assay: carrageenan paw edema in normal and adrenalectomized rats; format: in vivo, rat
Experimental: as §1
Normal rats received the same doses as adrenalectomized rats.

[3] = tested on: rat stomach (gastric ulcers, gastric swelling); format: in vivo, rat (male Charles River, Sprague-Dawley); conditions: for Number of Animals With Gastric Swelling / Number of Animals With Gastric Ulcers: 4 hours after dosing
Experimental: The rats are divided into groups 6-10 and dosed by the oral route with test compound, on a mg/kg. body weight basis, or vehicle control, 0.5% carboxymethylcellulose, in a volume of 3 ml. per rat. Four hours after dosing, the rats are decapitated and exsanguinated. Stomachs are removed and examined for gastric swelling and then opened and washed for visual inspection of gastric ulcers. Only one lesion or gastric bleeding is necessary for a positive response. Data is reported quantally.

[4] = tested on: polyarthritis induced by Mycobacterium butyricum or tuberculosis in rats; conditions: for Increase in Left Paw Volume (ml.) 0-16 days / Increase in Right Paw Volume (ml.) 0-4 days: mean ± S.E.
Experimental: (§2) Polyarthritis is induced in groups of 6-10 Sprague-Dawley rats weighing between 180-220 g. by a subcutaneous injection into the right paw of dessicated Mycobacterium butyricum or tuberculosis (0.5 mg/0.1 ml.) suspended in light mineral oil. […] Both hind paw volumes (ml.) are measured by mercury plethysmograph on day 0 or at the time of injection of the complete adjuvant. Increases in paw volume (viz. edema) are determined for both paws on days 4 and 16. The change in body weight from day 0 to day 16 is also calculated. Statistical analysis of differences in paw edemas and body weight is performed by using the unpaired. Student's t-test.

[5] = tested on: adjuvant arthritis in rats; assay: Adjuvant Arthritis Test, periodic administration (with daily regimen for comparison); conditions: rat; for Increase in Paw Volume 0-16 days (left paw) / Increase in Right Paw Volume (ml.) 0-4 days: mean ± S.E.
Experimental: as §2
Adjuvant arthritis is induced as described in A. above, but drugs are administered only on days 2, 3, 4 or on days 8, 9, 10.

[6] = oral 100 mg/kg, Table 1 group a
[7] = oral 180 mg/kg, Table 1 group c
[8] = oral 180 mg/kg, Table 1 group e
[9] = Adrenalectomized Rats, oral 100 mg/kg
[10] = Adrenalectomized Rats, oral 200 mg/kg
[11] = rat, oral 3.0 mg/kg daily, Table 3 group a
[12] = rat, oral 5.0 mg/kg daily, Table 3 group b
[13] = rat, oral 10.0 mg/kg daily, Table 3 group a
[14] = rat, oral 10.0 mg/kg daily, Table 3 group b
[15] = rat, oral 25.0 mg/kg daily, Table 3 group b
[16] = rat, oral 30.0 mg/kg daily, Table 3 group a
[17] = rat, oral 100.0 mg/kg daily, Table 3 group a
[18] = rat, oral 300.0 mg/kg daily, Table 3 group a
[19] = oral 2 mg/kg, Daily (0-15) except weekends
[20] = oral 6 mg/kg, Daily (0-15) except weekends
[21] = oral 18 mg/kg, Daily (0-15) except weekends

Compound: O=C(O)C=C1c2ccccc2C=Cc2ccccc21 [DCHA]
- estimated ED50 (carrageenan paw edema) ([1]; oral): ~80 mg/kg
- oral doses that inhibit carrageenan paw edema ([1]; oral): 10 to 180 mg/kg
- Change in paw volume (ml) from 0-3 hr ([1]; oral 3 mg/kg, Table 1 group a): 0.63 ± 0.10 mL
- % Change in paw edema ([1]; oral 3 mg/kg, Table 1 group a): -18%
- Change in paw volume (ml) from 0-3 hr ([1]; oral 10 mg/kg, Table 1 group a): 0.61 ± 0.05 mL
- % Change in paw edema ([1]; oral 10 mg/kg, Table 1 group a): -21%
- Change in paw volume (ml) from 0-3 hr ([1]; oral 10 mg/kg, Table 1 group b): 0.53 ± 0.10 mL
- % Change in paw edema ([1]; oral 10 mg/kg, Table 1 group b): -48%
- Change in paw volume (ml) from 0-3 hr ([1]; oral 20 mg/kg, Table 1 group c): 0.84 ± 0.10 mL
- % Change in paw edema ([1]; oral 20 mg/kg, Table 1 group c): -16%
- Change in paw volume (ml) from 0-3 hr ([1]; oral 20 mg/kg, Table 1 group e): 1.08 ± 0.05 mL
- % Change in paw edema ([1]; oral 20 mg/kg, Table 1 group e): -6%
- Change in paw volume (ml) from 0-3 hr ([1]; oral 30 mg/kg, Table 1 group a): 0.48 ± 0.06 mL
- % Change in paw edema ([1]; oral 30 mg/kg, Table 1 group a): -38%
- Change in paw volume (ml) from 0-3 hr ([1]; oral 30 mg/kg, Table 1 group b): 0.58 ± 0.08 mL
- % Change in paw edema ([1]; oral 30 mg/kg, Table 1 group b): -43%
- Change in paw volume (ml) from 0-3 hr ([1]; oral 60 mg/kg, Table 1 group c): 0.47 ± 0.08 mL
- % Change in paw edema ([1]; oral 60 mg/kg, Table 1 group c): -53%
- Change in paw volume (ml) from 0-3 hr ([1]; oral 60 mg/kg, Table 1 group e): 0.82 ± 0.13 mL
- % Change in paw edema ([1]; oral 60 mg/kg, Table 1 group e): -29%
- Change in paw volume (ml) from 0-3 hr ([1]; oral 90 mg/kg, Table 1 group b): 0.44 ± 0.03 mL
- % Change in paw edema ([1]; oral 90 mg/kg, Table 1 group b): -57%
- Change in paw volume (ml) from 0-3 hr [1, 6]: 0.44 ± 0.07 mL
- % Change in paw edema [1, 6]: -43%
- Change in paw volume (ml) from 0-3 hr [1, 7]: 0.49 ± 0.06 mL
- % Change in paw edema [1, 7]: -51%
- Change in paw volume (ml) from 0-3 hr [1, 8]: 0.62 ± 0.04 mL
- % Change in paw edema [1, 8]: -46%
- % Inhibition [2, 9]: 37%
- Edema (ml) ± S.E. [2, 9]: 0.57 ± .02 mL
- % Inhibition [2, 10]: 41%
- Edema (ml) ± S.E. [2, 10]: 0.81 ± .04 mL
- % Inhibition ([2]; Normal Rats, oral 100 mg/kg): 38%
- Mean Edema (ml) ± S.E. ([2]; Normal Rats, oral 100 mg/kg): 0.58 ± .04 mL
- % Inhibition ([2]; Normal Rats, oral 200 mg/kg): 44%
- Mean Edema (ml) ± S.E. ([2]; Normal Rats, oral 200 mg/kg): 0.53 ± .05 mL
- action by stimulating naturally occurring steroids ([2]; in words): independent of the adrenal glands
- anti-inflammatory activity in adrenalectomized rats compared with normal control animals ([2]; oral 100 and 200 mg/kg): not different from that observed in normal control animals
- gastric irritation ([3]; in words): neither causing gastric irritation nor affecting gastric secretions
- effect on gastric secretion ([3]; in words, high doses): no effect on gastric secretion
- gastric ulceration ([3]; rat, doses up to 480 mg/kg, in words): no gastric ulceration
- Number of Animals With Gastric Swelling ([3]; rat, oral 60 mg/kg): 0/6
- Number of Animals With Gastric Ulcers ([3]; rat, oral 60 mg/kg): 0/6
- Number of Animals With Gastric Swelling ([3]; rat, oral 120 mg/kg): 0/6
- Number of Animals With Gastric Ulcers ([3]; rat, oral 120 mg/kg): 0/6
- Number of Animals With Gastric Swelling ([3]; rat, oral 240 mg/kg): 0/6
- Number of Animals With Gastric Ulcers ([3]; rat, oral 240 mg/kg): 0/6
- Number of Animals With Gastric Swelling ([3]; rat, oral 480 mg/kg): 0/6
- Number of Animals With Gastric Ulcers ([3]; rat, oral 480 mg/kg): 0/6
- potency relative to aspirin ([4]; chronic inflammatory disease mediated mainly through immunological mechanisms, in words): several times more potent than aspirin
- toxicity at high doses ([4]; in words): no apparent toxicity at high doses
- % Change of Left Paw Edema at Day 16 [4, 11]: -45%
- % Change of Right Paw Edema at Day 4 [4, 11]: -15%
- Change In Body Weight (mean ± S.E.) 0-16 days [4, 11]: 22.5 ± 9.6
- Increase in Left Paw Volume (ml.) 0-16 days [4, 11]: 0.43 ± .09 mL
- Increase in Right Paw Volume (ml.) 0-4 days [4, 11]: 1.33 ± .11 mL
- % Change of Left Paw Edema at Day 16 [4, 12]: -5.4%
- % Change of Right Paw Edema at Day 4 [4, 12]: -30%
- Change In Body Weight (mean ± S.E.) 0-16 days [4, 12]: 19.5 ± 5.8
- Increase in Left Paw Volume (ml.) 0-16 days [4, 12]: 0.70 ± .05 mL
- Increase in Right Paw Volume (ml.) 0-4 days [4, 12]: 1.30 ± .08 mL
- % Change of Left Paw Edema at Day 16 [4, 13]: -47%
- % Change of Right Paw Edema at Day 4 [4, 13]: -55%
- Change In Body Weight (mean ± S.E.) 0-16 days [4, 13]: 25.6 ± 8.0
- Increase in Left Paw Volume (ml.) 0-16 days [4, 13]: 0.41 ± .04 mL
- Increase in Right Paw Volume (ml.) 0-4 days [4, 13]: 0.70 ± .06 mL
- % Change of Left Paw Edema at Day 16 [4, 14]: -55%
- % Change of Right Paw Edema at Day 4 [4, 14]: -39%
- Change In Body Weight (mean ± S.E.) 0-16 days [4, 14]: 33.3 ± 5.5
- Increase in Left Paw Volume (ml.) 0-16 days [4, 14]: 0.33 ± .06 mL
- Increase in Right Paw Volume (ml.) 0-4 days [4, 14]: 1.14 ± .04 mL
- % Change of Left Paw Edema at Day 16 [4, 15]: -47%
- % Change of Right Paw Edema at Day 4 [4, 15]: -47%
- Change In Body Weight (mean ± S.E.) 0-16 days [4, 15]: 30.3 ± 5.7
- Increase in Left Paw Volume (ml.) 0-16 days [4, 15]: 0.39 ± .04 mL
- Increase in Right Paw Volume (ml.) 0-4 days [4, 15]: 1.00 ± .05 mL
- % Change of Left Paw Edema at Day 16 [4, 16]: -62%
- % Change of Right Paw Edema at Day 4 [4, 16]: -58%
- Change In Body Weight (mean ± S.E.) 0-16 days [4, 16]: 45.8 ± 5.6
- Increase in Left Paw Volume (ml.) 0-16 days [4, 16]: 0.30 ± .05 mL
- Increase in Right Paw Volume (ml.) 0-4 days [4, 16]: 0.66 ± .06 mL
- weight gain ([4]; rat, oral 100 mg/kg): 51 g
- % Change of Left Paw Edema at Day 16 [4, 17]: -60%
- % Change of Right Paw Edema at Day 4 [4, 17]: -53%
- Change In Body Weight (mean ± S.E.) 0-16 days [4, 17]: 50.6 ± 5.4
- Increase in Left Paw Volume (ml.) 0-16 days [4, 17]: 0.31 ± .05 mL
- Increase in Right Paw Volume (ml.) 0-4 days [4, 17]: 0.74 ± .08 mL
- weight gain ([4]; rat, oral 300 mg/kg): 58 g
- % Change of Right Paw Edema at Day 4 [4, 18]: -58%
- Change In Body Weight (mean ± S.E.) 0-16 days [4, 18]: 58.2 ± 8.3
- Increase in Left Paw Volume (ml.) 0-16 days [4, 18]: 0.14 ± .06 mL
- Increase in Right Paw Volume (ml.) 0-4 days [4, 18]: 0.66 ± .05 mL
- toxic signs or loss of body weight ([4]; rat, oral 100 and 300 mg/kg): did not show any toxic signs or loss of body weight
- anti-inflammatory activity in the adjuvant arthritis test ([4]; rat, oral, daily): significant anti-inflammatory activity
- estimated ED50 (adjuvant arthritis test) ([4]; rat, oral, daily): ~15 mg/kg
- active doses, right paw edema at 4 days (acute, non-specific inflammation) ([4]; rat, orally): 10 to 300 mg/kg
- effective doses, left paw edema (immunologically induced inflammation) ([4]; rat, orally): 3-300 mg/kg
- activity in short term dosing regimen ([5]; days 2, 3, 4): less so
- activity in short term dosing regimen ([5]; days 8, 9, 10): active
- % Change of Left Paw Edema at Day 16 [5, 19]: +12%
- % Change of Right Paw Edema at Day 4 [5, 19]: +17%
- Change In Body Weight (mean ± S.E.) 0-16 days [5, 19]: 8.9 ± 7.8
- Increase in Paw Volume 0-16 days (left paw) [5, 19]: 0.82 ± 0.18
- Increase in Right Paw Volume (ml.) 0-4 days [5, 19]: 1.60 ± 0.08 mL
- % Change of Left Paw Edema at Day 16 [5, 20]: -16%
- % Change of Right Paw Edema at Day 4 [5, 20]: -24%
- Change In Body Weight (mean ± S.E.) 0-16 days [5, 20]: 6.0 ± 4.8
- Increase in Paw Volume 0-16 days (left paw) [5, 20]: 0.62 ± 0.04
- Increase in Right Paw Volume (ml.) 0-4 days [5, 20]: 1.03 ± 0.06 mL
- % Change of Left Paw Edema at Day 16 ([5]; oral 10 mg/kg, Days 2,3,4): -22%
- % Change of Right Paw Edema at Day 4 ([5]; oral 10 mg/kg, Days 2,3,4): -33%
- Change In Body Weight (mean ± S.E.) 0-16 days ([5]; oral 10 mg/kg, Days 2,3,4): 14.7 ± 11.7
- Increase in Paw Volume 0-16 days (left paw) ([5]; oral 10 mg/kg, Days 2,3,4): 0.58 ± 0.13
- Increase in Right Paw Volume (ml.) 0-4 days ([5]; oral 10 mg/kg, Days 2,3,4): 0.92 ± 0.07 mL
- % Change of Left Paw Edema at Day 16 ([5]; oral 10 mg/kg, Days 8,9,10): -58%
- Change In Body Weight (mean ± S.E.) 0-16 days ([5]; oral 10 mg/kg, Days 8,9,10): 10.5 ± 7.9
- Increase in Paw Volume 0-16 days (left paw) ([5]; oral 10 mg/kg, Days 8,9,10): 0.31 ± 0.06
- % Change of Left Paw Edema at Day 16 [5, 21]: -65%
- % Change of Right Paw Edema at Day 4 [5, 21]: -41%
- Change In Body Weight (mean ± S.E.) 0-16 days [5, 21]: 18.3 ± 6.7
- Increase in Paw Volume 0-16 days (left paw) [5, 21]: 0.26 ± 0.05
- Increase in Right Paw Volume (ml.) 0-4 days [5, 21]: 0.81 ± 0.07 mL
